# Source: PMC12686497, “Exploring neurokinin-1 receptor antagonism for depression with structurally differentiated inhibitors” (Experimental & Molecular Medicine, 2025)
# Tests used:
# [1] = test system: IL-1β, TNF-α and IL-6 mRNA; assay: qRT-PCR of proinflammatory cytokine mRNA in frontal cortex and hippocampus, LPS model; type: in vivo, C57BL/6 mice; details: 10 mg/kg i.p., 4 h after LPS, vs LPS-treated group
# Procedure: (§1) The ligands were dissolved at a dose of 10 mg/kg in the vehicle (10% dimethyl sulfoxide and 10% Kolliphor in 0.9% saline) and intraperitoneally injected into each animal in experimental groups.
# (§2) To generate the lipopolysaccharide (LPS) model, 0.25 mg/kg of LPS from E. coli O26:B6 (Sigma, L3755) was dissolved in 0.9% saline and injected intraperitoneally. The control group was treated with 0.9% saline instead of LPS injection. The mice received injections of either vehicle, compound #1, compound #15 or Aprepitant (Tocris Bioscience) on day 1, 1 h before LPS injection and on day 2.
# Four hours after LPS injection, the frontal lobe and hippocampus were isolated from the animal brain and placed in TRIzol solution (Ambion). Total RNA sample (2 μg) was reverse-transcribed into cDNA using Moloney Murine Leukemia Virus reverse transcriptase (M-MLV RT; Promega) and oligo (dT) primer (Novagen). Quantitative reverse transcription polymerase chain reaction (qRT–PCR), which quantifies gene expression levels, was performed using 0.5 μg of the reverse-transcription generated cDNA and specific primer sets (Supplementary Table 3). PCR amplification with iQ SYBR Green Supermix was performed in triplicate using the CFX96 Touch-Time System (Bio-Rad). The final products of qRT–PCR were electrophoresed on 2% agarose gels and visualized with SafeView Nucleic Acid Stain (G108, Applied Biological Materials). Cycle threshold (Ct) values at which the fluorescent signal exceeded the background were determined by qRT–PCR, and expression values for each gene were normalized to expression values of GAPDH. Relative quantification to calculate fold change was performed using the comparative Ct method (ΔΔCt).
# [2] = test system: LPS-induced depressive-like behavior; assay: Tail suspension test (TST) in LPS model; type: in vivo, C57BL/6 mice; details: 10 mg/kg i.p., vs LPS-treated group
# Procedure: as §1, §2
# On day 4 after LPS administration, the tail suspension test (TST) was conducted. A four-chamber apparatus divided by nontransparent acrylic partitions was used, and the mice were suspended in each chamber by the tail. A video was recorded for 6 min, and the last 4 min were manually scored for immobility time.
# [3] = molecular target: T1, NK1R (hTACR1-HEK293 cells) (Homo sapiens, UniProt P25103); assay: FLIPR calcium 6 assay, SP-induced intracellular calcium mobilization; type: cell-based; details: 1 nM SP
# T1 construct: expressed in transfected cells; host or cells: HEK293
# Procedure: The following day, the cells were loaded with the FLIPR calcium 6 dye mixed at 1:1 to medium with 2.5 mM probenecid. The assay plate was wrapped with aluminum foil and incubated for 2 h at 37 °C in a humidified CO2 incubator. Each concentration of chemicals was dissolved in 1× Hank’s Balanced Salt Solution (plus 20 mM HEPES buffer, pH 7.4) and added to the well. The plate was incubated for 30 min at 37 °C before measuring. The final concentration of dimethyl sulfoxide was 0.5% in each well. Then, 1 nM SP-induced intracellular calcium mobilization was examined by monitoring the fluorescence intensity (excitation at 485 nm, emission at 525 nm, cutoff filter set at 515 nm) using a Flex Station 3 multimode microplate reader. Changes in fluorescence signal after SP addition were normalized to its starting signal and denoted as F/F0.
# [4] = test system: RS-induced despair-like behavior; assay: Forced swim test (FST) in restraint stress (RS) model; type: in vivo, C57BL/6 mice; details: 10 mg/kg i.p. day 11 to 20
# Procedure: as §1
# To induce depressive-like behaviors in mice, restraint stress (RS) was applied using 50-ml conical tubes with many holes for 20 days, 2 h per day. From day 11 to 20, mice received injections of either vehicle or compound #15.
# (§3) On day 21 in the RS model and day 12 in the SI model, the forced swim test (FST) was performed. During each trial, mice were placed in a test cylinder (diameter 15 cm, height 25 cm) filled with water regulated at 25 ± 1 °C, and a video was recorded for 6 min. Immobility time was manually scored during the last 4 min of each trial.
# [5] = test system: SI-induced despair-like behavior; assay: Forced swim test (FST) in social isolation (SI) stress model; type: in vivo, C57BL/6 mice; details: 10 mg/kg i.p. day 6 to 13
# Procedure: as §1
# To generate the social isolation (SI) stress model, the animals were single-caged for 14 days. From day 6 to 13, mice received injections of either vehicle or compound #15.
# as §3
# T1 sequence (P25103 whole entry): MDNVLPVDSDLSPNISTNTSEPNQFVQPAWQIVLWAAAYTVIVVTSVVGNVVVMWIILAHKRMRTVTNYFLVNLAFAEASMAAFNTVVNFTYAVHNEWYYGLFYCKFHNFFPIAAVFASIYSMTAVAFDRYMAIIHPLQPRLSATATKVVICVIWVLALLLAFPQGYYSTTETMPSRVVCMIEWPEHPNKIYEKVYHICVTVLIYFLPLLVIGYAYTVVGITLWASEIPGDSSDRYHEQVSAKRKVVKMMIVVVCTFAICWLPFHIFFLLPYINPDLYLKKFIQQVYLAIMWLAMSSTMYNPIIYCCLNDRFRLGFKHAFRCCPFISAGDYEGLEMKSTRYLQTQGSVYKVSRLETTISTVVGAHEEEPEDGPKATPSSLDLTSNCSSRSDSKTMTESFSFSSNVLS
structure (smiles),measurement,setting,value
"C[C@@H](O[C@H]1OCCN(Cc2n[nH]c(=O)[nH]2)[C@H]1c1ccc(F)cc1)c1cc(C(F)(F)F)cc(C(F)(F)F)c1 [Aprepitant, reference compound]",IL-6 mRNA level,[1]; frontal cortex,significantly reduced
same,TNF-α mRNA level,[1]; frontal cortex,significantly reduced
same,IL-1β mRNA level,[1]; hippocampus,significantly reduced
same,IL-6 mRNA level,[1]; hippocampus,significantly reduced
same,TNF-α mRNA level,[1]; hippocampus,significantly reduced
same,immobility time in TST,[2],significant reduction in immobility time
COc1ccc(-c2[nH]c3ccc(F)cc3c2CCC(=O)NC(C)c2ccc(-n3cncn3)cc2)cc1 (stereo not shown) [#1],IC50 (in words),[3],single-digit micromolar
same,IL-6 mRNA level,[1]; frontal cortex,significantly reduced
same,TNF-α mRNA level,[1]; frontal cortex,significantly reduced
same,IL-1β mRNA level,[1]; hippocampus,significantly reduced
same,IL-6 mRNA level,[1]; hippocampus,significantly reduced
same,TNF-α mRNA level,[1]; hippocampus,significantly reduced
same,immobility time in TST,[2],significant reduction in immobility time
Cc1ccc2[nH]c(-c3ccc(Br)cc3)c(CCC(=O)NC(c3ccc(C(C)C)cc3)C(C)C)c2c1 (stereo not shown) [#15],IC50,[3],79.5 nM
same,immobility time in TST,[2],significantly reduced immobility time
same,immobility time in FST,[4],notable reduction in immobility time
same,immobility time in FST,[5],notable reduction in immobility time
Cc1cc(F)ccc1C1CCN(C(=O)NC2CCOC3(CCOC3)C2)CC1 (stereo not shown) [#3],NK1R antagonistic / inhibitory activity (in words),[3],weaker inhibitory effects
COc1ccc(C(C)=O)cc1CC(=O)N(C)Cc1cc(Br)ccc1OC [#2],NK1R antagonistic / inhibitory activity (in words),[3],weaker inhibitory effects
